{"source": "paper PMC5994920", "about": "(European journal of medicinal chemistry, 2017)", "key": {"[1]": {"tested_on": "U937 human tumor xenografts", "test": "In vivo antitumor assay, U937 xenograft model", "conditions": "for Body weight loss compared with the control group (toxicity): oral, MS275 50 mg/kg/day, 11a 100 mg/kg/day"}, "[2]": {"tested_on": "acetylated histone H3, acetylated histone H4, procaspase-3, cleaved caspase-3 and cleaved PARP", "test": "Western blot analysis in HL60 cells", "type": "cell-based, human", "conditions": "48 h treatment"}, "[3]": {"test": "Lip-water partition coefficient", "type": "physicochemical", "conditions": "compound concentration in n-octyl alcohol 5 mM"}, "[4]": {"test": "Intracellular fluid concentration", "type": "in vitro ADME", "conditions": "preliminary results, data not shown"}, "[5]": {"tested_on": "HCT116 human tumor xenografts", "test": "In vivo antitumor assay, HCT116 xenograft model", "conditions": "oral, 11a 100 mg/kg, SAHA 100 mg/kg, MS275 50 mg/kg"}}}
{"smiles": "COc1ccc(C(=O)N[C@@H](Cc2c[nH]c3ccccc23)C(=O)NCc2ccc(C(=O)Nc3ccccc3N)cc2)cc1", "note": "[Compound 11a, (S)-4-((3-(1H-indol-3-yl)-2-(4-methoxybenzamido)propanamido)methyl)-N-(2-aminophenyl)benzamide]", "values": [{"measurement": "Body weight loss compared with the control group (toxicity)", "setting": "[1]", "value": "This toxicity didn’t appear"}, {"measurement": "Level of acetylated histone H3 and acetylated histone H4 (western blot)", "setting": "[2]", "value": "markedly increase"}, {"measurement": "Levels of procaspase-3, cleaved caspase-3 and cleaved PARP (western blot)", "setting": "[2]", "value": "dramatically reduced the level of procaspase-3 and increased the level of cleaved caspased-3 and cleaved PARP"}]}
{"smiles": "COc1ccc(C(=O)N[C@@H](Cc2c[nH]c3ccccc23)C(=O)NCc2ccc(C(=O)Nc3cc(-c4ccccc4)ccc3N)cc2)cc1", "note": "[Compound 56c, (S)-4-((3-(1H-indol-3-yl)-2-(4-methoxybenzamido)propanamido)methyl)-N-(4-amino-[1,1’-biphenyl]-3-yl)benzamide]", "values": [{"measurement": "Detection in water phase in LogP test (water solubility)", "setting": "[3]", "value": "could hardly detect 56c in water phase"}, {"measurement": "Level of acetylated histone H3 and acetylated histone H4 (western blot)", "setting": "[2]", "value": "much less effects"}, {"measurement": "Levels of procaspase-3, cleaved caspase-3 and cleaved PARP (western blot)", "setting": "[2]", "value": "could be hardly affected"}, {"measurement": "Intracellular fluid concentration, times lower than 11a", "setting": "[4]", "value": "more than 10 times"}]}
{"smiles": "Nc1ccccc1NC(=O)c1ccc(CNC(=O)OCc2cccnc2)cc1", "note": "[MS275]", "values": [{"measurement": "Body weight loss", "setting": "[1]; first experiment, 100 mg/kg/day oral, three days later", "value": "serious body weight loss"}, {"measurement": "Body weight loss compared with the control group (toxicity)", "setting": "[1]", "value": "obvious body weight loss"}, {"measurement": "Levels of procaspase-3, cleaved caspase-3 and cleaved PARP (western blot)", "setting": "[2]", "value": "dramatically reduced the level of procaspase-3 and increased the level of cleaved caspased-3 and cleaved PARP"}, {"measurement": "Body weight loss compared with the control group", "setting": "[5]", "value": "serious body weight loss was observed"}]}
